# Data reported in patent publication US20240228463A1, “SODIUM CHANNEL INHIBITORS AND METHODS OF DESIGNING SAME” (Genentech, Inc., priority 2021, published 2024).
# Molecular target: T1, hNaV1.7 (Homo sapiens, UniProt Q15858)
# T1 construct: expressed in transfected cells
# Assay: Patch voltage clamp electrophysiology (EP), Syncropatch 384PE, Nav1.7 in CHO cells;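 further: Nav1.7 stably expressed from cDNA in CHO cells, holding potential of −50 mV kept for the entire experiment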
# Assay type: cell-based
# Details: holding potential −50 mV, inhibition based on 7.5 min compound incubation, read-out: hNaV1.7 EP_SP
# T1 sequence (Q15858 1-1977 isoform Q15858-3): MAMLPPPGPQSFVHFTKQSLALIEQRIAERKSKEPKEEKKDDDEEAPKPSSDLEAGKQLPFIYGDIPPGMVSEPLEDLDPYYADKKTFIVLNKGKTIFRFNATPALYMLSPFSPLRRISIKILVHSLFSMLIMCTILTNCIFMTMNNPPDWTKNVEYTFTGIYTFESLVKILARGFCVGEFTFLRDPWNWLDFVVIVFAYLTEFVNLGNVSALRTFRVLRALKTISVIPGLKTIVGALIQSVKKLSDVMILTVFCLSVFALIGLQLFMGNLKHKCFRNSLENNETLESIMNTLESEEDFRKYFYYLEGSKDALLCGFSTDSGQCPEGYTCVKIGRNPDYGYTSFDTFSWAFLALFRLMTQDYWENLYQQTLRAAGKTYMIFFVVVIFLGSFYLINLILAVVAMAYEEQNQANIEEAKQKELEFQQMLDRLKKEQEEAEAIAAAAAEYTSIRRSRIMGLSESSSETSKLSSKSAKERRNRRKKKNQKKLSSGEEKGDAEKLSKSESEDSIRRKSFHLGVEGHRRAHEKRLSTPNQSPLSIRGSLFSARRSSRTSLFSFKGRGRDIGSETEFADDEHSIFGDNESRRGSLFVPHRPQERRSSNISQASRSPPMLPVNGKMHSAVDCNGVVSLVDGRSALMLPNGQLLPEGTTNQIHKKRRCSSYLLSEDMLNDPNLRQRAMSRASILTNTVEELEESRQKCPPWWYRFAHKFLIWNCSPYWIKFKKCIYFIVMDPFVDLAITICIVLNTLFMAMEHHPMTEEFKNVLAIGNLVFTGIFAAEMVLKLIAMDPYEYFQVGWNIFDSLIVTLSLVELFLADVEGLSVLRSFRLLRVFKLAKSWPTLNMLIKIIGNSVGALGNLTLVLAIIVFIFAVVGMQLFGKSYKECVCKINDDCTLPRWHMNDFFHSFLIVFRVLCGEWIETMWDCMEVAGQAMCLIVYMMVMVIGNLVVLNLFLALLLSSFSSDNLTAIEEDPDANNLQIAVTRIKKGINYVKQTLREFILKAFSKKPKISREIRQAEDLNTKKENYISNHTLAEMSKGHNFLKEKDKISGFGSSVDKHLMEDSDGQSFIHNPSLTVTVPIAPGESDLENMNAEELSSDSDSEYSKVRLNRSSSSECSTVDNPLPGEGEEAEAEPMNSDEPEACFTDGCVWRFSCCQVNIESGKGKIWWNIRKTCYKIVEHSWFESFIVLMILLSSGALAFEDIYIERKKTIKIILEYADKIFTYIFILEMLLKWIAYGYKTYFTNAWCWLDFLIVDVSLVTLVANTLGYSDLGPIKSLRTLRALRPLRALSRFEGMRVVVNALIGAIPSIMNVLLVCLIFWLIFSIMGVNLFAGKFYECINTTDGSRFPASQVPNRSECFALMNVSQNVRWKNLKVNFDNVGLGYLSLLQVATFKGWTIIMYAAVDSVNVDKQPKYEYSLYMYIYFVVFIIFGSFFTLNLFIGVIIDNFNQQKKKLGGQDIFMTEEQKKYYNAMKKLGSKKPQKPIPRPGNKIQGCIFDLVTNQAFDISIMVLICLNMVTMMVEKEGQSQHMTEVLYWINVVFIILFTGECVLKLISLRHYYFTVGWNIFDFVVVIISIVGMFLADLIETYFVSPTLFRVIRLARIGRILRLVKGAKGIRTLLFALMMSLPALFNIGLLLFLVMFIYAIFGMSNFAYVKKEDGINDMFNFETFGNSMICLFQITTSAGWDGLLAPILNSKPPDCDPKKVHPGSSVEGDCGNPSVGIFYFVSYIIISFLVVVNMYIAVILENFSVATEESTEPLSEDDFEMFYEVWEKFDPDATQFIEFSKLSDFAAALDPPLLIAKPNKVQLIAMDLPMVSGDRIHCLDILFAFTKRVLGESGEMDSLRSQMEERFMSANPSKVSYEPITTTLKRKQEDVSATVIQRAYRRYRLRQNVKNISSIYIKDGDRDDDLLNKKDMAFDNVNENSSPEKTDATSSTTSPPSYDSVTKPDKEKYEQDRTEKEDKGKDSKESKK
row,IC50,SMILES
1,860 nM,"O=C(NS(=O)(=O)N1CC(O[C@@H]2CCCNC2)C1)c1cc(Cl)c(OCC2CCCC2)cc1F (single isomer, unassigned) [Example 49]"
2,77 nM,"O=C(NS(=O)(=O)N1CCC(O[C@H]2CCNC2)CC1)c1cc(Cl)c(OCC2CCCC2)cc1F (single isomer, unassigned) [Example 37, 2,2,2-trifluoroacetate]"
3,10 nM,"C[C@@H]1CCCCN1S(=O)(=O)NC(=O)c1cc(Cl)c(OCC2CCCC2)cc1F (single isomer, unassigned) [Example 225]"
4,16 nM,"O=C(NS(=O)(=O)c1ccc(OCc2ccncc2)cc1)c1cc(Cl)c(OCC2CCCC2)cc1F [Example 85, 5-chloro-4-(cyclopentylmethoxy)-2-fluoro-N-((4-(pyridin-4-ylmethoxy)-phenyl)sulfonyl)benzamide]"
5,430 nM,"O=C(NS(=O)(=O)N1CC[C@@H]2CN[C@@H]2C1)c1cc(Cl)c(OCC2CCCC2)cc1F [Example 231, N-((1S,6R)-3,8-diazabicyclo[4.2.0]octan-3-ylsulfonyl)-5-chloro-4-(cyclopentylmethoxy)-2-fluorobenzamide 2,2,2-trifluoroacetate]"
6,120 nM,"COc1ccc(COc2ccc(S(=O)(=O)NC(=O)c3cc(Cl)c(OCC4CCCC4)cc3F)cc2)cc1 [Example 309, 5-chloro-4-(cyclopentylmethoxy)-2-fluoro-N-((4-((4-methoxybenzyl)oxy)phenyl)sulfonyl)benzamide]"
7,240 nM,"C[C@H]1Cc2ccccc2N(S(=O)(=O)NC(=O)c2cc(Cl)c(OCC3CCCC3)cc2F)C1 (single isomer, unassigned) [Example 16]"
8,10 nM,"O=C(NS(=O)(=O)C1CC1)c1cc(Cl)c(OCC2CCCC2)cc1F [Example 328, 5-chloro-4-(cyclopentylmethoxy)-N-(cyclopropylsulfonyl)-2-fluorobenzamide]"
9,560 nM,"N[C@@]12C[C@@H]1CN(S(=O)(=O)NC(=O)c1cc(Cl)c(OCC3CCCC3)cc1F)C2 (single isomer, unassigned) [Example 218, 2,2,2-trifluoroacetate]"
10,39 nM,"CC(C)c1cc(C(=O)NS(=O)(=O)N2CCC(OC3CN(C)C3)CC2)c(F)cc1OCC1CCCC1 [Example 5, 4-(cyclopentylmethoxy)-2-fluoro-5-isopropyl-N-((4-((1-methylazetidin-3-yl)oxy)piperidin-1-yl)sulfonyl)benzamide]"
11,10 nM,"CN(C)[C@H]1CCCC[C@@H]1Nc1cc(F)c(S(=O)(=O)NC(=O)c2cc(C3CC3)c(OCC3CCCC3)cc2F)c(F)c1 [Example 204, 4-(cyclopentylmethoxy)-5-cyclopropyl-N-((4-(((1S,2S)-2-(dimethylamino)cyclohexyl)amino)-2,6-difluorophenyl)sulfonyl)-2-fluorobenzamide]"
12,210 nM,"N#Cc1ccc(S(=O)(=O)NC(=O)c2cc(Cl)c(OCC3CCCC3)cc2F)c(F)c1 [Example 272, 5-chloro-N-((4-cyano-2-fluorophenyl)sulfonyl)-4-(cyclopentylmethoxy)-2-fluorobenzamide]"
13,170 nM,"CN1CCCC(OC2CCN(S(=O)(=O)NC(=O)c3cc(Cl)c(OCC4CCCC4)cc3F)CC2)C1 (centres unmarked) [Example 52, 5-chloro-4-(cyclopentylmethoxy)-2-fluoro-N-((4-((1-methylpiperidin-3-yl)oxy)piperidin-1-yl)sulfonyl) benzamide]"
14,59 nM,"CN1CC(OC2CCN(S(=O)(=O)NC(=O)c3cc(C4CC4)c(OCC4CC4)cc3F)CC2)C1 [Example 9, 5-cyclopropyl-4-(cyclopropylmethoxy)-2-fluoro-N-((4-((1-methylazetidin-3-yl)oxy)piperidin-1-yl)sulfonyl)benzamide]"
15,26 nM,"CC[C@@H](C)S(=O)(=O)NC(=O)c1cc(Cl)c(OCC2CCCC2)cc1F (single isomer, unassigned) [Example 255]"
16,38 nM,"Cn1cc(COc2ccc(S(=O)(=O)NC(=O)c3cc(Cl)c(OCC4CCCC4)cc3F)cc2)cn1 [Example 299, 5-chloro-4-(cyclopentylmethoxy)-2-fluoro-N-((4-((1-methyl-1H-pyrazol-4-yl)methoxy)phenyl)sulfonyl)benzamide]"
17,49 nM,"COC1CCN(S(=O)(=O)NC(=O)c2cc(Cl)c(OCC3CCCC3)cc2F)CC1 [Example 20, 5-chloro-4-(cyclopentylmethoxy)-2-fluoro-N-((4-methoxypiperidin-1-yl)sulfonyl)benzamide]"
18,9.1 nM,"O=C(NS(=O)(=O)N1CCCC1)c1cc(Cl)c(OCC2CCCC2)cc1F [Example 22, 5-chloro-4-(cyclopentylmethoxy)-2-fluoro-N-(pyrrolidin-1-ylsulfonyl)-benzamide]"
19,90 nM,"NC[C@H]1CCCN(S(=O)(=O)NC(=O)c2cc(Cl)c(OCC3CCCC3)cc2F)C1 (single isomer, unassigned) [Example 27, 2,2,2-trifluoroacetate]"

row,IC50,SMILES
1,12 nM,"O=C(NS(=O)(=O)N1CCCC12CC2)c1cc(Cl)c(OCC2CCCC2)cc1F [Example 229, N-((4-azaspiro[2.4]heptan-4-yl)sulfonyl)-5-chloro-4-(cyclopentylmethoxy)-2-fluorobenzamide]"
2,250 nM,"O=C(NS(=O)(=O)N1CCC(OC2CNC2)CC1)c1cc(Cl)c(OCC2CCCC2)cc1F [Example 46, N-((4-(azetidin-3-yloxy)piperidin-1-yl)sulfonyl)-5-chloro-4-(cyclopentyl-methoxy)-2-fluorobenzamide]"
3,220 nM,"O=C(NS(=O)(=O)c1ccc(Oc2ccccc2)cc1)c1cc(Cl)c(OCC2CCCC2)cc1F [Example 263, 5-chloro-4-(cyclopentylmethoxy)-2-fluoro-N-((4-phenoxyphenyl)sulfonyl)benzamide]"
4,370 nM,"COc1ccc2nc(NS(=O)(=O)c3ccc(N[C@H]4CCCC[C@@H]4N(C)C)cc3F)sc2c1 [Example 201, 4-(((1S,2S)-2-(dimethylamino)cyclohexyl)amino)-2-fluoro-N-(6-methoxybenzo[d]thiazol-2-yl)benzenesulfonamide]"
5,340 nM,"CN(C)C1CN(S(=O)(=O)NC(=O)c2cc(Cl)c(OCC3CCCC3)cc2F)C1 [Example 234, 5-chloro-4-(cyclopentylmethoxy)-N-((3-(dimethylamino)azetidin-1-yl)sulfonyl)-2-fluorobenzamide]"
6,830 nM,"CN(C)[C@H]1CCCC[C@@H]1Oc1ccc(S(=O)(=O)Nc2ccc(Oc3ccc(Cl)cc3)cn2)c(F)c1 [Example 258, N-(5-(4-chlorophenoxy)pyridin-2-yl)-4-(((1S,2S)-2-(dimethylamino)cyclohexyl)oxy)-2-fluorobenzenesulfonamide]"
7,9.8 nM,"C[C@H]1C[C@@H]1S(=O)(=O)NC(=O)c1cc(Cl)c(OCC2CCCC2)cc1F (single isomer, unassigned) [Example 250]"
8,130 nM,"O=C(NS(=O)(=O)N1CCC(OC2CN(C3COC3)C2)CC1)c1cc(Cl)c(OCC2CCCC2)cc1F [Example 11, 5-chloro-4-(cyclopentylmethoxy)-2-fluoro-N-((4-((1-(oxetan-3-yl)azetidin-3-yl)oxy)piperidin-1-yl)sulfonyl)benzamide]"
9,230 nM,"O=C(NS(=O)(=O)c1ccc(OCc2ncccn2)cc1)c1cc(Cl)c(OCC2CCCC2)cc1F [Example 295, 5-chloro-4-(cyclopentylmethoxy)-2-fluoro-N-((4-(pyrimidin-2-ylmethoxy)phenyl)sulfonyl)benzamide]"
10,420 nM,"O=C(NS(=O)(=O)N1CC[C@@H](OC2CCNCC2)C1)c1cc(Cl)c(OCC2CCCC2)cc1F (single isomer, unassigned) [Example 213]"
11,120 nM,"O=C(NS(=O)(=O)[C@@H]1C[C@H]1c1ccccc1)c1cc(Cl)c(OCC2CCCC2)cc1F (relative stereo) [Example 284, 5-chloro-4-(cyclopentylmethoxy)-2-fluoro-N-((trans-2-phenylcyclopropyl)sulfonyl)benzamide]"
12,400 nM,"O=S(=O)(Nc1noc2cc(OCC3CCCC3)c(Cl)cc12)N1CCC(O[C@H]2CCNC2)CC1 (single isomer, unassigned) [Example 90, 2,2,2-trifluoroacetate]"
13,120 nM,"O=C(NS(=O)(=O)c1ccc(OCC2CCNC2)cc1)c1cc(Cl)c(OCC2CCCC2)cc1F (stereo in doubt) [Example 302, (R)-5-chloro-4-(cyclopentylmethoxy)-2-fluoro-N-((4-(pyrrolidin-3-ylmethoxy)phenyl)sulfonyl)benzamide]"
14,110 nM,"CN1CC(OC2CCN(S(=O)(=O)NC(=O)c3cc(Cl)c(OCC4CCCC4)cc3F)CC2)C1 [Example 1, 5-chloro-4-(cyclopentylmethoxy)-2-fluoro-N-((4-((1-methylazetidin-3-yl)oxy)piperidin-1-yl)sulfonyl)benzamide]"
15,650 nM,"CC(C)/C=C/c1cc2cnc(NS(=O)(=O)c3cc(Cl)c(N[C@H]4CCCC[C@@H]4N(C)C)cc3F)cc2n1C [Example 102, 5-chloro-4-(((1S,2S)-2-(dimethylamino)cyclohexyl)amino)-2-fluoro-N-(1-methyl-2-((E)-3-methylbut-1-en-1-yl)-1H-pyrrolo[3,2-c]pyridin-6-yl)benzenesulfonamide]"
16,260 nM,"O=C(NS(=O)(=O)N1CC(OC2CCNCC2)C1)c1cc(Cl)c(OCC2CCCC2)cc1F [Example 50, 5-chloro-4-(cyclopentylmethoxy)-2-fluoro-N-((3-(piperidin-4-yloxy)azetidin-1-yl)sulfonyl)benzamide]"
17,84 nM,"CN1CC(OC2CCN(S(=O)(=O)NC(=O)c3cc(C4CC4)c(OCC(F)(F)F)cc3F)CC2)C1 [Example 238, 5-cyclopropyl-2-fluoro-N-((4-((1-methylazetidin-3-yl)oxy)piperidin-1-yl)sulfonyl)-4-(2,2,2-trifluoroethoxy)benzamide]"
18,320 nM,"COc1cc(C(=O)NS(=O)(=O)N2CCC(OC3CN(C)C3)CC2)c(F)cc1OCC1CCCC1 [Example 6, 4-(cyclopentylmethoxy)-2-fluoro-5-methoxy-N-((4-((1-methylazetidin-3-yl)oxy)piperidin-1-yl)sulfonyl) benzamide]"
19,40 nM,"C[C@H]1CCCCN1S(=O)(=O)NC(=O)c1cc(Cl)c(OCC2CCCC2)cc1F (single isomer, unassigned) [Example 224]"
